# Measurements taken from patent US20240158446A1, “CYCLIC COMPOUND HAVING SELECTIVE INHIBITORY ACTION ON KRAS OVER HRAS AND NRAS” (CHUGAI SEIYAKU KABUSHIKI KAISHA, priority 2021, published 2024).
# pIC50, pKd: −log10 of the molar value. Read-outs that look alike come from different tables or passages of the source. *1 amine or outer side, *2 acyl side, *3 side chain or, on linkers, in order; H or OH if unused. Where a SMILES comes first, the peptide text is derived from it. Bridges are numbered along the chain shown (N, C = ends). [ ]: non-standard residue; d: D form. The star is where a group is joined. hPhe(3,5-F2-4-CF3) = N[C@@H](CCc1cc(F)c(C(F)(F)F)c(F)c1)C(=O)O; hPhe(3-Cl-4-CF3) = N[C@@H](CCc1ccc(C(F)(F)F)c(Cl)c1)C(=O)O; NPrPhe(4-CF3) = CCCN[C@@H](Cc1ccc(C(F)(F)F)cc1)C(=O)O; NPrPhe(4-Me) = CCCN[C@@H](Cc1ccc(C)cc1)C(=O)O; X14 = CN([C@@H](CCCCC=[*:3])C(=O)[*:2])[*:1]; dαMeAlg = C[C@](CC=[*:3])(N[*:1])C(=O)[*:2]; NMeGly(cPent) = CN[C@H](C(=O)O)C1CCCC1; Hyp = O=C(O)[C@@H]1C[C@@H](O)CN1; NMeD = CN[C@@H](CC(=O)O)C(=O)O; NMeL = CN[C@@H](CC(C)C)C(=O)O; Pip = O=C(O)[C@@H]1CCCCN1; αMeS = C[C@](N)(CO)C(=O)O; Morpholide = C1CN(*)CCO1; Ac5c = NC1(C(=O)O)CCCC1; Aze = O=C(O)[C@@H]1CCN1; NEtG = CCNCC(=O)O; Sar = CNCC(=O)O; Allyl = C=CC*
# Assays:
# [1] = target: GDP-bound KRAS wild-type protein (Homo sapiens, UniProt P01116); assay: Binding to KRAS by surface plasmon resonance (SPR), Single Cycle Kinetics
# [2] = target: GDP-bound HRAS wild-type protein (Homo sapiens, UniProt P01112); assay: Binding to HRAS by surface plasmon resonance (SPR), Single Cycle Kinetics; settings: for HRAS/KRAS (ratio of KD value with respect to GDP-bound HRAS wild-type protein to KD value with respect to KRAS): SPR KD ratio HRAS/KRAS, class symbols; for HRAS/KRAS (ratio of KD value for HRAS to KD value for KRAS) / HRAS/KRAS (ratio of KD value with respect to HRAS to KD value with respect to KRAS): SPR, GDP-bound HRAS wild-type protein vs GDP-bound KRAS wild-type protein
# [3] = tested on: human lung cancer strain NCI-H441;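 also: cell proliferation inhibition after four days measured by CellTiter-Glo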
# [4] = target: GDP-bound NRAS wild-type protein (Homo sapiens, UniProt P01111); assay: Binding to NRAS by surface plasmon resonance (SPR), Single Cycle Kinetics; settings: SPR, GDP-bound NRAS wild-type protein vs GDP-bound KRAS wild-type protein
# [5] = SPR Single Cycle Kinetics, GDP-bound KRAS wild-type protein, 1:1 binding model, read-out: KRAS KD
# [6] = SPR, Single Cycle Kinetics, GDP-bound KRAS wild-type protein, read-out: KRAS KD
# Chain of GDP-bound NRAS wild-type protein (P01111 whole entry): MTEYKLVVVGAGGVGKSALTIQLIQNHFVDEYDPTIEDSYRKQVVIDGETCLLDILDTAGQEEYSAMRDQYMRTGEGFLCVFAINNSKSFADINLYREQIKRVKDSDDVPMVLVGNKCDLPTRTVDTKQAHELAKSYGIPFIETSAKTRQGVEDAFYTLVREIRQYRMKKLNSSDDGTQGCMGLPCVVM
# Chain of GDP-bound KRAS wild-type protein (P01116 whole entry): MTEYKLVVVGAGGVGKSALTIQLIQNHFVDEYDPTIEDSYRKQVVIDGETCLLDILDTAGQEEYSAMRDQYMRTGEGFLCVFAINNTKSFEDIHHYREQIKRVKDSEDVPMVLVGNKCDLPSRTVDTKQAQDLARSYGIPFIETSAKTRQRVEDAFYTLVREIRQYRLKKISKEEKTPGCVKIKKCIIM
# Chain of GDP-bound HRAS wild-type protein (P01112 whole entry): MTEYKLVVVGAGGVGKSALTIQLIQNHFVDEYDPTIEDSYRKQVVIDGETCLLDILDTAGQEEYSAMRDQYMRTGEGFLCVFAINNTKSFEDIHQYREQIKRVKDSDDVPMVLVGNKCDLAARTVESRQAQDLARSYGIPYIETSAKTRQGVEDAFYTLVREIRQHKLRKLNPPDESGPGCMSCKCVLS
Compound,pIC50 [3],HRAS/KRAS (ratio of KD value for HRAS to KD value for KRAS) [2],NRAS/KRAS (ratio of KD value for NRAS to KD value for KRAS) [4],further results
CC[C@H](C)[C@@H]1NC(=O)[C@H](COC)N(C)C(=O)C[C@@H](C(=O)N2CCCCC2)N(C)C(=O)[C@H](C2CCCC2)N(C)C(=O)C2(CC(C)(C)C2)NC(=O)[C@@H]2C[C@@H](OC(C)C)CN2C(=O)[C@H](CCc2cc(F)c(C(F)(F)F)c(F)c2)NC(=O)CN(C)C(=O)[C@H](Cc2ccc(C(F)(F)F)cc2)N2CC/C=C\C[C@@H](C2=O)N(C)C(=O)CN(C)C1=O [PP2663],7.95,–,–,"pKd [1, 5]: 9.62; HRAS/KRAS (ratio of KD value with respect to GDP-bound HRAS wild-type protein to KD value with respect to KRAS) [2]: A (a compound having 10 or more and less than 20 is denoted as A)"
CCC[C@H]1C(=O)N[C@@H](CC(C)C)C(=O)N(C2CC2)CC(=O)N(C)[C@H]2C/C=C\CCN(C2=O)[C@@H](Cc2ccc(C)cc2)C(=O)N(C)CC(=O)N[C@@H](CCc2ccc(C(F)(F)F)c(Cl)c2)C(=O)N2C[C@H](OCC)C[C@H]2C(=O)NC2(CCC2)C(=O)N(C)[C@@H](C2CCCC2)C(=O)N(C)[C@H](C(=O)N(C)C)CC(=O)N1C [PP2543],6.75,–,–,"pKd [1, 5]: 8.38; HRAS/KRAS (ratio of KD value with respect to GDP-bound HRAS wild-type protein to KD value with respect to KRAS) [2]: B (a compound having 3 or more and less than 10 is denoted as B)"
CCCCCC[C@H]1C(=O)N[C@@H]([C@@H](C)CC)C(=O)N(C)CC(=O)N(C)[C@H]2C/C=C\CCN(C2=O)[C@@H](Cc2ccc(C(F)(F)F)cc2)C(=O)N(C)CC(=O)N[C@@H](CCc2cc(F)c(C(F)(F)F)c(F)c2)C(=O)N2C[C@H](OCC)C[C@H]2C(=O)NC2(CCC2)C(=O)N(C)[C@@H](C(CC)CC)C(=O)N(C)[C@H](C(=O)N(C)C)CC(=O)N1C [PP1202],7.62,–,–,"pKd [1, 6]: 9.40"
CCC(CC)[C@H]1C(=O)N(C)[C@H](C(=O)N(C)C)CC(=O)N(C)[C@@H](COC)C(=O)N[C@@H]([C@@H](C)CC)C(=O)N(C2CC2)CC(=O)N(C)[C@H]2C/C=C\CCN(C2=O)[C@@H](CC2CCCCC2)C(=O)N(C)CC(=O)N[C@@H](CCc2ccc(Cl)c(Cl)c2)C(=O)N2C[C@H](OC(C)C)C[C@H]2C(=O)NC2(CC(C)(C)C2)C(=O)N1C [PP2517],6.25,A (a compound having 10 or more and less than 20 is denoted as A),–,"pKd [1, 6]: 8.03"
CCCN1C(=O)[C@@H]2CCN2C(=O)[C@H](C)NC(=O)[C@H]([C@@H](C)CC)NC(=O)[C@H](CC(C)C)N(C)C(=O)C[C@@H](C(=O)N2CCOCC2)N(C)C(=O)[C@H](C2CCCC2)N(C)C(=O)C2(CCCC2)NC(=O)[C@@H]2CCCN2C(=O)[C@H](CCc2ccc(C(F)(F)F)c(Cl)c2)NC(=O)CN(C)C(=O)[C@@H]1Cc1ccc(C)cc1 [PP0071] ([NMeL]IA[Aze][NPrPhe(4-Me)][Sar][hPhe(3-Cl-4-CF3)]P[Ac5c][NMeGly(cPent)][NMeD]-Morpholide; lactam N-11),8.42,–,–,"pKd [1, 5]: 9.82"
CC[C@H](C)[C@@H]1NC(=O)[C@H](CC(C)C)N(C)C(=O)CSC[C@H](C(=O)N(C)C)N(C)C(=O)[C@H](C2CCCC2)N(C)C(=O)C2(CCCC2)NC(=O)[C@@H]2CCCN2C(=O)[C@H](CCc2cc(F)c(C(F)(F)F)c(F)c2)NC(=O)CN(C)C(=O)[C@H](Cc2ccc(C(F)(F)F)cc2)N2CC/C=C\C[C@@H](C2=O)N(C)C(=O)CN(C)C1=O [PP3109],–,–,–,"pKd ([1]; SPR, Single Cycle Kinetics, 1:1 binding model, read-out: KD value with respect to GDP-bound KRAS wild-type protein): 5.52; pKd [1, 6]: 5.52; pIC50 ([3]; read-out: NCI-H441 cell proliferation inhibitory activity, 50% proliferation inhibitory concentration (IC50 value), NCI-H441, four days, CellTiter-Glo): 5.47"
CC[C@H](C)[C@@H]1NC(=O)[C@H](Cc2cccc(F)c2)N(C)C(=O)C[C@@H](C(=O)N2CCOCC2)N(C)C(=O)[C@H](C2CCCC2)N(C)C(=O)C2(CCCC2)NC(=O)[C@@H]2CCCN2C(=O)[C@H](CCc2ccc(C(F)(F)F)c(Cl)c2)NC(=O)CN(C)C(=O)[C@H](Cc2ccc(F)cc2)N2CCCCC[C@@H](C2=O)N(C)C(=O)CN(C)C1=O [PP0962],7.08,B (a compound having 3 or more and less than 10 is denoted as B),B (a compound having 3 or more and less than 10 is denoted as B),–
CCO[C@@H]1C[C@H]2C(=O)NC3(CCC3)C(=O)N(C)[C@@H](C3CCCC3)C(=O)N(C)[C@H](C(=O)N(C)C)CC(=O)N(C)[C@@H](CC)C(=O)N[C@@H]([C@@H](C)CC)C(=O)N(C)CC(=O)N(C)[C@H]3CCCCCN(C3=O)[C@@H](Cc3ccc(F)c(F)c3)C(=O)N(C)CC(=O)N[C@@H](CCc3cc(F)c(C(F)(F)F)c(F)c3)C(=O)N2C1 [PP0907],7.61,B (a compound having 3 or more and less than 10 is denoted as B),B (a compound having 3 or more and less than 10 is denoted as B),–
CC[C@H](C)[C@@H]1NC(=O)[C@H](CC(C)C)N(C)C(=O)C[C@@H](C(=O)N2CCOCC2)N(C)C(=O)[C@H](C2CCCC2)N(C)C(=O)C2(CCCC2)NC(=O)[C@@H]2CCCN2C(=O)[C@H](CCc2ccc(C(F)(F)F)c(Cl)c2)NC(=O)CN(C)C(=O)[C@H](Cc2ccc(OC)cc2)N2C/C=C\CC[C@@H](C2=O)N(C)C(=O)CN(C)C1=O [PP0609],6.33,–,–,NRAS/KRAS (ratio of KD value with respect to NRAS to KD value with respect to KRAS) [4]: B (a compound having 3 or more and less than 10 is denoted as B); HRAS/KRAS (ratio of KD value with respect to HRAS to KD value with respect to KRAS) [2]: B (a compound having 3 or more and less than 10 is denoted as B)
"CCCN1C(=O)CN(C)C(=O)CN(C)C(=O)[C@H]([C@@H](C)CC)NC(=O)[C@@H]2CCCCC=CC[C@@](C)(NC(=O)[C@@H]3C[C@@H](OCC)CN3C(=O)[C@H](CCc3cc(F)c(C(F)(F)F)c(F)c3)NC(=O)CN(C)C(=O)[C@@H]1Cc1ccc(C(F)(F)F)cc1)C(=O)N(C)[C@@H](C1CCCC1)C(=O)N(C)[C@H](C(=O)N1CCOCC1)CC(=O)N2C [PP0902] ([X14]I[Sar][Sar][NPrPhe(4-CF3)][Sar][hPhe(3,5-F2-4-CF3)][Hyp](Et)[dαMeAlg][NMeGly(cPent)][NMeD]-Morpholide; staple 1-9; lactam N-11)",7.14,B (a compound having 3 or more and less than 10 is denoted as B),A (a compound having 10 or more and less than 20 is denoted as A),–
CC[C@H](C)[C@@H]1NC(=O)[C@H](CC(C)C)N(C)C(=O)C[C@@H](C(=O)N2CCOCC2)N(C)C(=O)[C@H](C2CCCC2)N(C)C(=O)C2(CCCC2)NC(=O)[C@@H]2CCCN2C(=O)[C@H](CCc2ccc(C(F)(F)F)c(Cl)c2)NC(=O)CN(C)C(=O)[C@H](Cc2ccc(F)cc2)N2C/C=C\CC[C@@H](C2=O)N(C)C(=O)CN(C)C1=O [PP0607],6.92,–,–,NRAS/KRAS (ratio of KD value with respect to NRAS to KD value with respect to KRAS) [4]: C (A compound having a KD ratio of 0.1 or more and less than 3 is denoted as C); HRAS/KRAS (ratio of KD value with respect to HRAS to KD value with respect to KRAS) [2]: B (a compound having 3 or more and less than 10 is denoted as B)
"C=CCOC[C@]1(C)NC(=O)[C@@H]2CCCN2C(=O)[C@H](CCc2cc(F)c(C(F)(F)F)c(F)c2)NC(=O)CN(C)C(=O)[C@H](Cc2ccc(C(F)(F)F)cc2)N(CCC)C(=O)CN(C)C(=O)[C@@H]2CCN2C(=O)[C@H]([C@@H](C)CC)NC(=O)[C@H](CC(C)C)N(C)C(=O)C[C@@H](C(=O)N2CCOCC2)N(C)C(=O)[C@H](C2CCCC2)N(C)C1=O [PP0780] ([NMeL]I[Aze][Sar][NPrPhe(4-CF3)][Sar][hPhe(3,5-F2-4-CF3)]P[αMeS](Allyl)[NMeGly(cPent)][NMeD]-Morpholide; lactam N-11)",6.28,–,–,NRAS/KRAS (ratio of KD value with respect to NRAS to KD value with respect to KRAS) [4]: B (a compound having 3 or more and less than 10 is denoted as B); HRAS/KRAS (ratio of KD value with respect to HRAS to KD value with respect to KRAS) [2]: B (a compound having 3 or more and less than 10 is denoted as B)
CCO[C@@H]1C[C@H]2C(=O)NC3(CCC3)C(=O)N(C)[C@@H](C3CCCC3)C(=O)N(C)[C@H](C(=O)N3CCOCC3)CC(=O)N(C)[C@@H](Cc3cccc(F)c3)C(=O)N[C@@H]([C@@H](C)CC)C(=O)N(C)CC(=O)N(C)[C@H]3CCCCCN(C3=O)[C@@H](Cc3ccc(C(F)(F)F)cc3)C(=O)N(C)CC(=O)N[C@@H](CCc3cc(F)c(C(F)(F)F)c(F)c3)C(=O)N2C1 [PP0856],7.18,B (a compound having 3 or more and less than 10 is denoted as B),B (a compound having 3 or more and less than 10 is denoted as B),–
CCCN1C(=O)CN(C)C(=O)CN(CC)C(=O)[C@H]([C@@H](C)CC)NC(=O)[C@H](CC(C)C)N(C)C(=O)C[C@@H](C(=O)N2CCOCC2)N(C)C(=O)[C@H](C2CCCC2)N(C)C(=O)C2(CCCC2)NC(=O)[C@@H]2CCCCN2C(=O)[C@H](CCc2ccc(C(F)(F)F)c(Cl)c2)NC(=O)CN(C)C(=O)[C@@H]1Cc1ccc(C(F)(F)F)cc1 [PP0297] ([NMeL]I[NEtG][Sar][NPrPhe(4-CF3)][Sar][hPhe(3-Cl-4-CF3)][Pip][Ac5c][NMeGly(cPent)][NMeD]-Morpholide; lactam N-11),7.13,C (A compound having a KD ratio of 0.1 or more and less than 3 is denoted as C),B (a compound having 3 or more and less than 10 is denoted as B),–
